“Also recorded” adds a separate entry of the source. Where two headings read alike, the source gives them in different places. Non-standard residues stand in square brackets, D forms with d. Residues, ends and D or L forms follow the SMILES beside them. pGlu = O=C1CC[C@@H](C(=O)O)N1
What was measured:
[1] = biological target: GnRH receptor (HepG2 membrane preparation); assay: GnRH in vitro binding to HepG2 membrane preparation (radioreceptor assay); parameters: species or system human; settings: for Kd: 95% confidence interval in parentheses; for Displacement / competitive inhibition of labeled [D-Lys6]-GnRH binding to HepG2 membrane preparation: unlabeled non-GnRH peptides, FIG. 2B
Description: (§1) Cells were grown to confluence as previously described and harvested from the flasks by using a rubber policeman. The cells were washed in normal assay buffer (([…] Tris[hydroxymethyl] aminomethane[Tris]-HCl), containing 1 mM dithiothreitol and 0.5% BSA [fraction-V] (pH 7.6)) and precipitated by centrifugation at 500g for 5 minutes at 4° C.
(§2) The cleaned cells were homogenized in 50 ml of freshly prepared ice cold 25 mM sucrose in assay buffer containing 1 mM Phenylmethanesulphonyl fluoride and 5 mM Ethylenediaminetetraacetic acid, using a glass TEFLON (polytetra-fluoroethylene) homogenizer, followed by centrifugation at 100 ×g for 5 minutes (4° C.). The supernatant was further centrifuged at 17,000×g for 30 minutes at 4° C., and the pellet (crude membrane preparation) washed briefly and resuspended in the assay buffer (approximately 40-50 μg membrane protein or approximately 1 x 10^6 cell equivalent per 100 μl).
(§3) For protein determination, aliquots of crude membrane preparations were washed twice with double distilled water by centrifugation (25,000 ×g) and assayed for protein content, using BSA as the standard. The binding assay was carried out at 4° C.
(§4) The displacement curves were fitted for both single and two classes of binding sites by computer calculated lines, as described.
(§5) The potency of various GnRH-related peptides in terms of binding (equilibrium dissociation constant; kd) and growth suppression activity in the human hepatocarcinoma derived cell line HepG2 was studied. […] Data analysis was performed as described.
(§6) Homologous displacement of GnRH-related peptides in membrane homogenates prepared from HepG2 cells and non-cancerous postmortem human liver tissue was studied. Values (mean ± SEM) represent specific binding [B/T, bound over total, in %] determined by subtraction of non-saturable binding in the presence of excess peptides (10^-5 M). Results were obtained from 5 to 7 separated experiments, each carried out in triplicate. The binding data were analyzed by computerized Scatchard analysis (LIGAND) according to Munson and Rodbard.

[2] = biological target: GnRH binding sites (normal rat liver); assay: GnRH in vitro binding to normal rat liver membrane preparation; settings: 95% confidence interval in parentheses, read-out: Receptor Binding Activity (Kd, nM) Normal Rat Liver
Description: as §1, §2
(§7) A similar protocol was used to prepare the membrane from fresh rat and frozen human postmortem liver. In all experiments the final membrane preparation was used in the radioreceptor assay within 45 minutes.
as §3, §4

HepG2 cells = assay: HepG2 cell proliferation (cell counting); assay type: cell-based; settings: for Effect on HepG2 cell proliferation: single administration at 10^-7 M, six days in culture
Description: HepG2 or HuH-7 cells were maintained in 75-cm^2 flasks at 37° C. under a humidified atmosphere of 5% CO2 in modified Minimum Essential Medium (Gibco-BRL) supplemented with 10% fetal bovine serum, 200mM 1-Glutamine (1%), Penicillin (1000 IU/ml), streptomycin (100 μg/ml) and sodium bicarbonate (0.15%). Cells grown to confluence were harvested following mild trypsinization and wash (twice by slow centrifugation; 400 g for 10 minutes) in normal culture medium.
Approximately 50,000 cells in 1.0 ml culture media were plated in 24 deep well plates (Flacon). This time was considered day -1. Cells were allowed to grow for one day. The growing cells were then treated with various hormones (at day 0) prepared aseptically in culture media immediately prior to addition. The final volume was maintained at 1 ml. The plates were then incubated at 37° C. for a period of 4 to 6 days, as described above.
Cells in each well were harvested by removal of culture media and incubation with 0.5 ml 0.25% trypsin and 1.75 mM EDTA for 30 minutes at 37° C. Cells were then transferred into 1.5 ml microfuge tubes and centrifuged at 100g for 10 minutes. The supernatant was removed and the pellet was resuspended in a final volume of 200 μl of culture media containing 10% trypan blue.
Cells were then counted using a hemocytometer. The average cell mortality was less than 5.0% and was not different among different treatment groups. Each value represents the mean and standard error of several experiments (n>3), each carried out in quadruplicate incubations at each time point and hormone concentration.
as §5
The effect of GnRH-related peptides on the proliferation of the human hepatoma derived cell line HepG2 was studied. Values (mean ± SEM) represent the percent change with respect to initial cell number at day 0 over a period of six days in culture.
The dose response curves were analyzed by a computerized, four parameter curve fitting program (ALLFIT) as described. The result of time-related response on cell proliferation was analyzed using a two-way ANOVA with multiple comparison means of using computerized statistical package (SYSTAT).

[3] = test system: GnRH binding sites (normal human liver); assay: GnRH in vitro binding to non-cancerous postmortem human liver membrane preparation; settings: for Displacement / competitive inhibition of labeled [D-Lys6]-GnRH binding to non-cancerous human liver membrane preparation: unlabeled non-GnRH peptides, FIG. 2D; for Kd: 95% confidence interval in parentheses, read-out: Receptor Binding Activity (Kd, nM) Normal Human Liver
Description: as §1, §2, §7, §3, §4, §6

[4] = biological target: T1, normal pituitary cell GnRH receptors (Rattus norvegicus, UniProt P30969); assay: GnRH binding, normal rat pituitary; settings: 95% confidence interval in parentheses, read-out: Receptor Binding Activity (Kd, nM) Normal Rat
T1 construct: normal pituitary cell GnRH receptors; from tissue; host or cells: normal rat pituitary
T1 sequence (P30969 1-327): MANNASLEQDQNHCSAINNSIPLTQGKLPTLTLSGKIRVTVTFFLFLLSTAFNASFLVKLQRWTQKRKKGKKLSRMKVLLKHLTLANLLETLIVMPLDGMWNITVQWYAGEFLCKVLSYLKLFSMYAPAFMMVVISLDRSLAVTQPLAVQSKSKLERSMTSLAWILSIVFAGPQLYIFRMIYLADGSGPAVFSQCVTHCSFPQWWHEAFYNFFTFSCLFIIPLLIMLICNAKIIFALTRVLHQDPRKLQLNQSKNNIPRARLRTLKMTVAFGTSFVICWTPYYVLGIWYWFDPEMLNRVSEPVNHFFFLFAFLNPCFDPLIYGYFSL
Description: as §4
Data analysis was performed as described.

mammalian pituitary = settings: reference [11]; cited from earlier work
[5] = Labeled ligand 125I-[D-Lys6]-GnRH, 4° C.
[6] = Labeled ligand 125I-[D-Lys6]-GnRH
[7] = Labeled ligand 125I-[D-Arg6]-sGnRH-A

| Compound | Kd [1, 5] [nM] | Kd [2, 6] [nM] | Effect on HepG2 cell proliferation (HepG2 cells) | Displacement / competitive inhibition of labeled [D-Lys6]-GnRH binding to HepG2 membrane preparation [1] | Displacement / competitive inhibition of labeled [D-Lys6]-GnRH binding to non-cancerous human liver membrane preparation [3] | Kd [4, 6] [nM] | Suppression of HepG2 growth ED50 (HepG2 cells) [nM] | also measured |
| --- | --- | --- | --- | --- | --- | --- | --- | --- |
| CC(C)C[C@H](NC(=O)CNC(=O)[C@H](Cc1ccc(O)cc1)NC(=O)[C@H](CO)NC(=O)[C@H](Cc1c[nH]c2ccccc12)NC(=O)[C@H](Cc1c[nH]cn1)NC(=O)[C@@H]1CCC(=O)N1)C(=O)N[C@@H](CCCNC(=N)N)C(=O)N1CCC[C@H]1C(=O)NCC(N)=O [GnRH, reference compound] | 9.17 | 384 | suppressed |  |  |  |  |  |
| NC(=O)[C@@H]1CCCN1C(=O)[C@H](Cc1cnc[nH]1)NC(=O)[C@@H]1CCC(=O)N1 [TRH, Thyrotropin releasing hormone] |  |  |  | did not show competitive inhibition | did not displace |  |  | Displacement / competitive inhibition of labeled [D-Lys6]-GnRH binding to HepG2 membrane preparation ([1]; listed as Thyrotropin releasing hormone (TRH)): did not displace |
| CCNC(=O)[C@@H]1CCCN1C(=O)[C@H](CC(C)C)NC(=O)[C@H](Cc1c[nH]c2ccccc12)NC(=O)[C@@H](CCCNC(=N)N)NC(=O)[C@H](Cc1ccc(O)cc1)NC(=O)[C@H](CO)NC(=O)[C@H](Cc1c[nH]c2ccccc12)NC(=O)[C@H](Cc1c[nH]cn1)NC(=O)[C@@H]1CCC(=O)N1 [[D-Arg^6]-sGnRH-A, pGlu-His-Trp-Ser-Tyr-DArg-Trp-Leu-Pro-N-ethylamide] ([pGlu]HWSY[dR]WLP-NHEt) |  |  |  |  |  |  |  | Kd [1, 7]: 7.09 nM; Kd [3, 7]: 3850 nM; Kd [2, 7]: 833 nM; Kd [4, 7]: 0.334 nM |
| CC(C)C[C@H](NC(=O)CNC(=O)[C@H](Cc1c[nH]cn1)NC(=O)[C@H](CO)NC(=O)[C@H](Cc1c[nH]c2ccccc12)NC(=O)[C@H](Cc1c[nH]cn1)NC(=O)[C@@H]1CCC(=O)N1)C(=O)N[C@@H](CC(N)=O)C(=O)N1CCC[C@H]1C(=O)NCC(N)=O [cfGnRH] ([pGlu]HWSHGLNPG-NH2) | 17.9 | 8330 | suppressed |  |  | 140 | 2.29 |  |
| CC(C)C[C@H](NC(=O)[C@H](CO)NC(=O)[C@H](Cc1ccc(O)cc1)NC(=O)[C@H](Cc1c[nH]cn1)NC(=O)[C@@H]1CCC(=O)N1)C(=O)N[C@@H](CCC(=O)O)C(=O)N[C@@H](Cc1c[nH]c2ccccc12)C(=O)N[C@@H](CCCCN)C(=O)N1CCC[C@H]1C(=O)NCC(N)=O [lGnRH] ([pGlu]HYSLEWKPG-NH2) | 66.6 | 8330 | suppressed |  |  | 2 | 1.5 | Kd [3, 6]: 6660 nM; Gonadotropin release activity in rat and sheep pituitary (mammalian pituitary): little; Potency in releasing gonadotropin from mammalian pituitary compared to mammalian based GnRH analogs (mammalian pituitary): significantly lower potency |
| CC(C)C[C@H](NC(=O)[C@H](Cc1c[nH]c2ccccc12)NC(=O)CNC(=O)[C@H](Cc1ccc(O)cc1)NC(=O)[C@H](CO)NC(=O)[C@H](Cc1c[nH]c2ccccc12)NC(=O)[C@H](Cc1c[nH]cn1)NC(=O)[C@@H]1CCC(=O)N1)C(=O)N1CCC[C@H]1C(=O)NCC(N)=O [sGnRH] ([pGlu]HWSYGWLPG-NH2) |  | 1560 | suppressed |  |  | 179 | 7.55 | Kd [3, 6]: 7140 nM; Potency in releasing gonadotropin from mammalian pituitary compared to mammalian based GnRH analogs (mammalian pituitary): significantly lower potency |
| Met Enkephalin [Met-Enkephalin] |  |  |  | did not show competitive inhibition | did not displace |  |  | Displacement / competitive inhibition of labeled [D-Lys6]-GnRH binding to HepG2 membrane preparation ([1]; listed as Met Enkephalin): did not displace |
| α-melanocyte stimulating hormone [α-MSH, reference compound] |  |  | lack of effect; also recorded: did not | did not displace; also recorded: did not show competitive inhibition | did not displace |  |  |  |
